Data: patent US20200069609A1 (WIGEN BIOMEDICINE TECHNOLOGY (SHANGHAI) CO., LTD., priority 2017, published 2020)

Legend:
GST-LC3B = target: T1, GST-LC3B (Homo sapiens, UniProt Q9GZQ8); assay: Fluorescence polarization (FP) assay, GST-LC3B with FITC-labeled peptide; assay type: binding; conditions: GST-LC3B 180 nM, FITC-labeled peptide 18 nM
T1 construct: This fusion protein was used directly in the fluorescence polarization assay; made in house
Protocol: (§1) GST-LC3B (1-125) (SEQ ID NO: 2) and each mutant protein were expressed by IPTG induction in DE3 competent cells at 16° C. After collecting and resuspending DE3 competent cells, the cells were sonicated and centrifuged. The resulted supernatant was hanged on the column (GSTrap FF, GE), followed by eluting with glutathione-containing eluant, and then the target protein was produced by gel filtration chromatography. This fusion protein was used directly in the fluorescence polarization assay. The proteins used in the protein thermal shift assay, mass spectrometry, and protein crystallization experiments were produced by PP enzyme or thrombin digestion and the following gel filtration chromatography to the GST-fusion protein obtained by the above method.
Recombinant protein GST-LC3B (final concentration 180 nM) (SEQ ID NO: 2) and N-terminal FITC-labeled peptide (SEQ ID NO: 5, final concentration 18 nM) were placed in FP buffer solution (50 mM HEPES pH 7.5, 0.1 mg/ml BSA and 1 mM DTT), into which the compound gradually diluted by the FP buffer was added, then the resulted mixture was incubated in dark at 25° C. Fluorescence polarization values were monitored (PerkinElmer Envision, the wavelength of the […]) and the IC50 values were calculated by the GraphPad Prism 6.0 program.
Representation of the IC50 value of the compounds: “[…]<IC50≤1 mM” is considered as having low activity (+) against LC3B. “15 μM<<IC50≤100 μM” of the compound is considered as having moderate activity (++) against LC3B. “3 μM<IC50≤15 μM” is considered as having high activity (+++) against LC3B. “IC50≤3 μM” is considered as having higher activity (++++) against LC3B.

LC3B (1-125) [1] = target: T2, LC3B (1-125) (Homo sapiens, UniProt Q9GZQ8); assay: Protein thermal shift assay; assay type: binding; conditions: protein 4 μM, compound 40 μM
T2 construct: GST (N, cleaved yes); made in house
Protocol: as §1
(§2) The protein thermal shift assay is used to test the effect of compounds on the thermodynamic stability of proteins via the Quant Studio 6 Flex Real-Time PCR system. Protein LC3B (1-125) (SEQ ID NO: 3) and each mutant protein (SEQ ID NO: 7-15) (final concentration 4 μM), environmentally sensitive dye (5×SYPRO orange, Invitrogen) and compound (final concentration 40 μM) were mixed in the buffer solution (50 mM HEPES pH 7.5, 1 mM DTT) to a total volume of 20 μL. The sample was heated from 25° C. to 95° C. with a heating rate of 3%. Changes in fluorescence intensity were monitored and each melting temperature (Tm), represented by AT in the unit of ° C., was calculated by Protein Thermal Shift Software 1.1 (ABI).

LC3B (1-125) [2] = target: T2, LC3B (1-125); assay: Mass spectrometry of LC3B incubated with compound; conditions: trypsin digest, b and y type ions
Protocol: For further verifying the covalent binding, LC3B (1-125) (SEQ ID NO: 3) protein was separately incubated with compounds B, C and D for mass spectrometry.
After incubating the compound and protein for a given period of time, the product was separated by gel electrophoresis, and the protein having an appropriate size was digested by trypsin. The resulting polypeptide was dissolved and loaded onto a C18 reverse-phase column coupled to an EASY-nLC 1000 system. The polypeptide was eluted to perform mass spectrometry and Mascot search.

LC3B K49A mutant = target: T3, LC3B K49A mutant (Homo sapiens, UniProt Q9GZQ8, K49A); assay: Protein thermal shift assay on K49A mutant; assay type: binding
T3 construct: GST (N, cleaved yes); made in house
Protocol: as §2
(§3) LC3B totally has 9 lysines, and for investigating the site selectivity of Compound A, all the 9 lysines were mutated to alanine (K8A, K30A, K39A, K42A, K49A, K51A, K65A, K103A, K122A; SEQ ID NO:7-15).

[3] = system: LC3B mutants K8A, K30A, K39A, K42A, K51A, K65A, K103A, K122A; assay: Protein thermal shift assay on lysine-to-alanine mutants other than K49A; assay type: binding, human; conditions: all lysine-to-alanine mutants except K49A; protein 4 μM, compound 40 μM
Protocol: as §2, §3

Hela cells = assay: Immunofluorescence staining of autophagosomes in Hela cells; assay type: cell-based; conditions: 30 μM or 100 μM for 12 h, then serum-free starvation 24 hours; compared with control group
Protocol: For further investigating the effects of compounds on cell autophagosomes, Hela cells were seeded onto glass coverslips in 6-well plate and cultured until the cells being in good conditions, which were treated with 30 μM or 100 μM of Compound B for 12 h, then replaced to a serum-free medium and starved for 24 hours. The cells were pre-cooled for 10 minutes, then punched with 0.2% Triton X-100 and stood at room temperature for 10 minutes. Next, the cells were blocked with PBS containing 2.5% BSA and incubated overnight with a 4 degree anti-LC3B primary antibody, after which the primary antibody was recognized with a fluorescent secondary antibody, the nuclei were stained with DAPI and photographed under a microscope.

LC3B (2-119) = target: T4, LC3B (2-119) (Homo sapiens, UniProt Q9GZQ8); assay: Crystal complex structure of LC3B protein and small molecule; conditions: crystal soaked with compound 1-5 mM
T4 construct: GST (N, cleaved yes); made in house
Protocol: A vacant protein crystal of LC3B (2-119) (SEQ ID NO: 4) was obtained by the sit-drop method, and then the crystal was taken out and soaked in a bath containing Compound A with a final concentration of 1-5 mM. The diffraction data were collected at the 19U1 line station of Shanghai Synchrotron Radiation Facility. And the diffraction data were integrated by XDS software and then compressed by Aimless module in CCP4. The LC3B protein structure with a PDB number of 3VTU was used as a template to perform molecular replacement by Phaser module to obtain the initial phase information, and then final refinement was performed by PHENIX and COOT.

Compound | IC50 (GST-LC3B; Table 2, comparative compounds) | ΔT (melting temperature shift) (LC3B (1-125) [1]; Table 2, comparative compounds) | IC50 (GST-LC3B; Table 1, 25° C.) | ΔT (melting temperature shift) (LC3B (1-125) [1]; Table 1) | further results
Cc1ccc(C(=O)O)c(C(=O)Nc2ccc(-c3nc4ccc(C)cc4s3)cc2)c1 [compound 2, reference compound] | 50 µM | 0 °C | – | – | –
Cc1ccc2c(C)c(C(=O)Nc3ccc(S(=O)(=O)Nc4onc(C)c4C)cc3)oc2c1 [compound 6, reference compound] | 47 µM | 0 °C | – | – | –
NC=C1C(=O)CC(c2ccccc2)CC1=O (stereo not drawn) [Compound C, 2-(aminomethyl-ene)-5-phenyl-cyclohexane-1,3-dione] | – | – | 28.8 µM | 2.87 °C | covalent modification of LC3B by mass spectrometry (LC3B (1-125) [2]): covalently modified the lysine at position 49 in LC3B
Cc1ccc(C2CC(=O)C(=CNCCN3CCN(C(=O)C(C)C)CC3)C(=O)C2)cc1 (stereo not drawn) [H] | – | – | 5 µM | – | –
LBP2: positive control polypeptide, LBP2 (SEQ ID NO: 6) (GGDDDWTHLSSKEVD; LBP2) [reference compound] | – | – | – | – | thermal shift of LC3B K49A mutant (LC3B K49A mutant; K49A mutant, protein 4 μM, compound 40 μM): significant heat shift; thermal shift of LC3B mutants [3]: significant heat shift
Cc1cc(NS(=O)(=O)c2ccc(NC(=O)c3ccc(C(=O)Nc4ccc(S(=O)(=O)Nc5cc(C)on5)cc4)cc3)cc2)no1 [compound 4, reference compound] | 28 µM | 1.8 °C | – | – | –
Cc1ccc(NC(=O)CN2CCN(CCNCC3C(=O)CC(c4ccc(C)cc4)CC3=O)CC2)cc1 (stereo not drawn) [Compound B] | – | – | – | – | cell autophagosomes (anti-LC3B immunofluorescence) (Hela cells): cell autophagosomes accumulated
CCOc1c(I)cc(/C=N\Nc2ccc(C(=O)O)cc2)cc1OC [compound 3, reference compound] | 28 µM | 2.1 °C | – | – | –
2-((Dimethyl amino)methyl- ene)-5-(tlhio- phen-2-yl)cyclo- hexane-1,3- dione [Compound A] | – | – | 1.56 µM | 10.37 °C | site selectivity for lysine at position 49 in LC3B (LC3B K49A mutant; concluded from thermal shift of the 9 lysine mutants): selectively modify the lysine at position 49; thermal shift of LC3B mutants [3]: significant thermal shift; covalent linkage in crystal complex (LC3B (2-119)): covalently linked to the lysine residue (ε-amino group) at position 49 in LC3B
O=C1CC(c2cccc3[nH]ccc23)CC(=O)C1=CO (stereo not drawn) [Compound I, 2-(hydroxy-methylene)-5-(1H-indol-4-yl)cyclohexane-1,3-dione] | – | – | 0.51 µM | 13.4 °C | covalent linkage in crystal complex (LC3B (2-119)): covalently linked to the lysine residue (ε-amino group) at position 49 in LC3B
5-phenyl-2- (((2-(4-(benzoyl) piperazin-1-yl) ethyl)amino) methylene) cyclohexane-1,3- dione [G] | – | – | 4.83 µM | 9.83 °C | –
CCNC(=S)N1CCN(CCNC=C2C(=O)CC(c3ccccc3)CC2=O)CC1 (stereo not drawn) [F, 5-phenyl-2-(((2-(4-(ethyl-aminothiocarbonyl)piperazin-1-yl)ethyl)amino)methylene) cyclohexane-1,3-dione] | – | – | 6.54 µM | – | –
CC1=CCC(C(=O)O)C(C(=O)Nc2ccc(-c3nc4ccc(C)cc4s3)cc2)C1 (stereo not drawn) [compound 1, reference compound] | 46 µM | 0 °C | – | – | –
Cc1ccc(NC(=O)CN2CCN(CCNC=C3C(=O)CC(c4ccccc4)CC3=O)CC2)cc1 (stereo not drawn) [E] | – | – | 5 µM | 10.21 °C | –
COc1ccc(C2CC(=O)C(=CN(C)C)C(=O)C2)cc1 (stereo not drawn) [Compound D, 2-((Dimethylamino)methyl-ene)-5-(4-methoxyphenyl) cyclohexane-1,3-dione] | – | – | 1.46 µM | 10.82 °C | covalent modification of LC3B by mass spectrometry (LC3B (1-125) [2]): covalently modified the lysine at position 49 in LC3B
